In patent US5981517A, “Androstene derivatives” (priority 1997, dated 1999):

Legend:
skin = experiment: Skin weight test, 10 days of topical treatment in the rat; assay type: in vivo, Male Sprague-Dawley rats; settings: rat, in vivo
Description: Male Sprague-Dawley rats, weighing about 210 g, were lightly anesthetized with ether, shaved and marked in three areas on each flank with intradermally injected blue ink. […] Treated control animals received daily topical administration of the vehicle (DMF) alone. Solvent and test compound solutions (10 μL) were applied once daily for 10 consecutive days, with […] necessary. On the eleventh day, the animals were sacrificed, their skins were removed and 16 mm diameter plugs were punched out from each area. The plugs were scraped carefully to remove subcutaneous fat and muscle, then they were blotted on filter paper and weighed. Skin atrophy is a known side effect associated with topically applied anti-inflammatory steroids.

[1] = tested on: granulation tissue (granuloma); assay type: in vivo, rat
Description: The test compound was dissolved in acetone and aliquots of varying concentrations were injected into cotton pellets. The pellets were dried and then one pellet was implanted beneath the skin of each test rat. Six days later, the animals were sacrificed and the granulation tissue (granuloma) which formed in and around the implanted pellet was removed, dried and weighed. In addition, the thymi and adrenals were removed and weighed. The ability of a compound to inhibit granuloma formation in this test is a direct indication of local anti-inflammatory activity; thus, the lower the weight of granulation tissue, the better the anti-inflammatory activity.

granuloma / thymolysis = experiment: Comparison of local effect and systemic side-effects (therapeutic index); assay type: in vivo, rat; settings: granuloma relative potency / thymolysis relative potency
Description: The test compound was dissolved in acetone and aliquots of varying concentrations were injected into cotton pellets. The pellets were dried and then one pellet was implanted beneath the skin of each test rat. Six days later, the animals were sacrificed and the granulation tissue (granuloma) which formed in and around the implanted pellet was removed, dried and weighed. In addition, the thymi and adrenals were removed and weighed.
(§1) Several further studies were undertaken to determine the effects of a selected compound of the invention and prior art steroids on thymi weights in rats when the drugs were systemically administered. In each of these studies, male Sprague-Dawley rats were used. The test compounds were suspended in 0.5% CMC (carboxymethylcellulose) and injected subcutaneously once daily for three days. On the fifth day (48 hours following the last treatment), the animals were sacrificed and the thymi weights were recorded. Body weight gains were measured 24 hours after the last treatment.
The ED50 's calculated for the local cotton pellet granuloma assay and the TED40 's calculated on the basis of thymus inhibition testing as described above were used to arrive at relative potency and a therapeutic index for a representative species of the invention as compared to prior art steroids.

[2] = tested on: right ear of each mouse (croton oil challenge); experiment: Ear edema test (croton oil, mice); assay type: in vivo; settings: 6 h after croton oil challenge
Description: In treatment groups of mice, selected amounts of the test compound were dissolved in acetone containing 5% croton oil; then, 50 microliters of the solution were applied to the inner surface of the right ear of each mouse. A control group of mice was identically treated with vehicle only, i.e., 5% croton oil in acetone. Six hours after croton oil challenge, the thickness of each ear was measured.

thymi = tested on: thymi; design: species or system male Sprague-Dawley rats; settings: rat, in vivo, sc
Description: as §1, with “treatment. From the test results, the TED40 's (thymolytic effective doses, that is, doses required to achieve 40% inhibition of thymi weight) and relative potencies of a representative compound of the invention and reference steroids were calculated. […] It is evident that the higher the inhibition of thymus activity at a given dose, the more toxic the compound is.” for “treatment.”

| SMILES | Wet skin weight, Treated, Decrease (skin) | Wet skin weight, Untreated, Decrease (skin) | local anti-inflammatory activity (inhibition of granuloma formation) ([1]; cotton pellet, 6 days) | systemic effect ([1]; rat, in vivo) | Therapeutic Index (a/b) (granuloma / thymolysis) | inhibition of swelling ([2]; 10 μg/mL) | inhibition of swelling ([2]; 100 μg/mL) | Thymolysis, Relative Potency at ED40 Level (b) (thymi) |
| --- | --- | --- | --- | --- | --- | --- | --- | --- |
| COC(=O)[C@@]1(OC(=O)C(Cl)Cl)[C@H](C)C[C@H]2[C@@H]3CCC4=CC(=O)C=C[C@]4(C)[C@@]3(F)[C@@H](O)C[C@@]21C [Compound I, methyl 17α-dichloroacetoxy-9α-fluoro-11β-hydroxy-16α-methylandrosta-1,4-dien-3-one-17β-carboxylate] | 11.6% | 11.2% | significant local anti-inflammatory activity | relatively much lower systemic effect | 7.10 | 37.4% | 92.1% | 156 |
| CCCCC(=O)O[C@]1(C(=O)CO)[C@@H](C)C[C@H]2[C@@H]3CCC4=CC(=O)C=C[C@]4(C)[C@@]3(F)[C@@H](O)C[C@@]21C [Betamethasone 17-valerate, reference compound] |  |  |  |  | 1.0 |  |  | 100 |
